{
  "source": "patent US9364438B2",
  "about": "“Process for producing solid particles” (Takeda Pharmaceutical Company Limited, priority 2012, dated 2016)",
  "assay": "Microscopic observation of precipitated resatorvid crystals (poor solvent crystallization)",
  "assay_type": "physicochemical",
  "settings": "microscope",
  "experimental": "Resatorvid (10 mg) was dissolved in methanol (0.5 mL) to prepare a methanol solution of resatorvid. The solution was added dropwise to water (5 mL) for injection with stirring at 600 rpm to allow precipitation of resatorvid crystal. The crystal was recovered, and vacuum dried at 50° C. for 24 hr. The obtained crystal was observed under a microscope.\nIn the same manner as in Comparative Example 1 except that water for injection containing nanobubbles produced under the above-mentioned conditions was used instead of water for injection, resatorvid crystal was obtained. The obtained crystal was observed under a microscope.\nResatorvid (10 mg) was dissolved in methanol (0.5 mL) to prepare a methanol solution of resatorvid. Polysorbate 80 (2 mg) was dissolved in water for injection (10 mL) to prepare aqueous polysorbate 80 solution. The aforementioned resatorvid solution (0.5 mL) was added dropwise to water (10 mL) for injection with stirring at 600 rpm to allow precipitation of resatorvid crystal. The crystal was recovered, and vacuum dried at 50° C. for 24 hr. The obtained crystal was observed under a microscope.\nIn the same manner as in Comparative Example 2 except that water for injection containing nanobubbles produced under the above-mentioned conditions was used instead of water for injection, resatorvid crystal was obtained. The obtained crystal was observed under a microscope.",
  "data": [
    {"smiles": "CCOC(=O)C1=CCCC[C@H]1S(=O)(=O)Nc1ccc(F)cc1Cl", "note": "[Example 1, ethyl (6R)-6-[(2-chloro-4-fluoroanilino)sulfonyl]-1-cyclohexene-1-carboxylate]", "values": [
      {"measurement": "average maximum length of each crystal particle", "setting": "poor solvent nanobubble water, compared with conventional water for injection (Comparative Example 1), FIG. 1 vs FIG. 2", "value": "smaller average maximum length"}
    ]},
    {"smiles": "CCOC(=O)C1=CCCC[C@H]1S(=O)(=O)Nc1ccc(F)cc1Cl", "note": "[Example 2, ethyl (6R)-6-[(2-chloro-4-fluoroanilino)sulfonyl]-1-cyclohexene-1-carboxylate]", "values": [
      {"measurement": "average maximum length of each crystal particle", "setting": "poor solvent aqueous polysorbate 80 nanobubble solution, compared with conventional aqueous polysorbate 80 solution (Comparative Example 2)", "value": "smaller average maximum length"}
    ]}
  ]
}
